Assay results reported in US6824770B1, “Adenovirus gene expression system” (Cornell Research Foundation, Inc., priority 1993, dated 2004).
Where two headings read alike, the source gives them in different places.

Assays:
TRH-R [1] = molecular target: T1, TRH-R (Mus musculus, UniProt P21761); type: cell-based
T1 construct: expressed in transfected cells; host or cells: Infected with AdCMVmTRHR or transfected with pAdCMVmTRHR: HeLa, GHY, AtT-20, C6, CV1, COS-1 and KB cells

mouse TRH-R = molecular target: T2, mouse TRH-R (Mus musculus, UniProt P21761); assay: [3H]methylTRH binding to intact AdCMVmTRHR-infected cells; details: TRH-Rs expressed on cells after infection with AdCMVmTRHR; data not shown; read-out: dissociation constant for methylTRH binding
T2 construct: expressed in transfected cells; host or cells: Infected with AdCMVmTRHR or transfected with pAdCMVmTRHR: HeLa, GHY, AtT-20, C6, CV1, COS-1 and KB cells
T2 sequence (P21761 1-393): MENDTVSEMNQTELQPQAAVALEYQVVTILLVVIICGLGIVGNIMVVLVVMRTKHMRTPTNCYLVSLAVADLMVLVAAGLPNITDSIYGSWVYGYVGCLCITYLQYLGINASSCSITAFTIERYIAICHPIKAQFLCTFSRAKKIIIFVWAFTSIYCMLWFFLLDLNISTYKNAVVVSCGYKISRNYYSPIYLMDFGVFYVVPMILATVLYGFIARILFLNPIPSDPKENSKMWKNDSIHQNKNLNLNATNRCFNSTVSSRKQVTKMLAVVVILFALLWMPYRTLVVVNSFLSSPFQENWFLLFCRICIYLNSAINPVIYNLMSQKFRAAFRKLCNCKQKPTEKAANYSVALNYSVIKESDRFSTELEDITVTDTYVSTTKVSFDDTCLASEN
Experimental: (§1) Cells were seeded in wells (3.8 cm^2) pretreated with poly-L-lysine and were incubated in medium supplemented with serum in a humidified atmosphere of 5% CO2. After a minimum of 4 hours, the medium was aspirated and replaced with 0.3 ml of medium without serum, AdCMVmTRHR (300 particles/cell) was added and the cells were incubated at 37° C. After 1 hour, 0.7 to 1.0 ml medium containing serum was added and the incubation continued for 3 to 72 hours. Infection with AdCMVmTRHR was performed in an identical manner for all cell types except that the incubation mediums were different. The mediums were: Dulbecco's modified Eagle's medium supplemented with 5% Nu-Serum for human cervical cancer HeLa cells, monkey kidney Cos-1 and CV-1 cells, and rat glioma C6 cells; Ham's F-10 medium with 15% horse serum and 2.5% fetal bovine serum for rat pituitary tumor GHY cells; Delbecco's modified Eagle's medium with 10% Nu-Serum for mouse pituitary tumor AtT-20 cells; and modified Eagle's medium with 10% fetal bovine serum for human epidermoid KB cells. None of these cell lines express TRH-Rs. Cells were studied 16 to 24 hours after infection with 300 AdCMVmTRHR particles per cell which yielded maximal TRH-R expression. […]

TRH-R [2] = molecular target: T1, TRH-R; assay: Internalization of TRH-Rs (acid-resistant specifically bound [3H]methylTRH); type: cell-based; details: methylTRH-bound receptors
Experimental: Cells were seeded in wells (3.8 cm^2) pretreated with poly-L-lysine and were incubated in medium supplemented with serum in a humidified atmosphere of 5% CO2. After a minimum of 4 hours, the medium was aspirated and replaced with 0.3 ml of medium without serum, AdCMVmTRHR (300 particles/cell) was added and the cells were incubated at 37° C. After 1 hour, 0.7 to 1.0 ml medium containing serum was added and the incubation continued for 3 to 72 hours. Infection with AdCMVmTRHR was performed in an identical manner for all cell types except that the incubation mediums were different. The mediums were: Dulbecco's modified Eagle's medium supplemented with 5% Nu-Serum for human cervical cancer HeLa cells, monkey kidney Cos-1 and CV-1 cells, and rat glioma C6 cells; Ham's F-10 medium with 15% horse serum and 2.5% fetal bovine serum for rat pituitary tumor GHY cells; Delbecco's modified Eagle's medium with 10% Nu-Serum for mouse pituitary tumor AtT-20 cells; and modified Eagle's medium with 10% fetal bovine serum for human epidermoid KB cells. None of these cell lines express TRH-Rs. Cells were studied 16 to 24 hours after infection with 300 AdCMVmTRHR particles per cell which yielded maximal TRH-R expression.
Internalization was measured as specifically bound [^3H]methylTRH that was resistant to acid wash (Hinkle et al., 1982, J.Biol. Chem., vol. 257, pp. 5462-5470; and Nussenzveig et al., 1993, J.Biol. Chem., vol. 268, pp. 2389-2392, which disclosures are hereby incorporated by reference). Specific acid resistant binding was calculated by subtracting the nonspecifically bound from the [^3H]methylTRH remaining after acid/salt elution.

TRH-R [3] = molecular target: T1, TRH-R; assay: methylTRH stimulation of [3H]IP formation (TRH response); type: cell-based; details: uninfected HeLa, GHY, AtT, C6, CV1 and COS-1 cells
Experimental: as §1, with “TRH-Rs.” for “TRH-Rs. Cells were studied 16 to 24 hours after infection with 300 AdCMVmTRHR particles per cell which yielded maximal TRH-R expression.”
Infected or transfected cells were labelled for 24 hours with [^3H]myo-inositol, stimulated with TRH or methylTRH in a balanced salt solution containing 10 mM LiCl and [^3H]IPs were measured as described by Imai et al., 1987, Methods. […]

Structure (SMILES): CCCCCCCCCCCCCC(=O)O[C@@H]1[C@@H](C)[C@@]2(O)[C@@H](C=C(CO)C[C@]3(O)C(=O)C(C)=C[C@@H]23)[C@@H]2C(C)(C)[C@]12OC(C)=O [PMA]
- PMA-induced inhibition of the TRH response (TRH-R [1]; AdCMVmTRHR-infected AtT-20 cells, 0.1 μM PMA 60 minutes prior to TRH): 37±4.0%
- PMA-induced inhibition of the TRH response (TRH-R [1]; AdCMVmTRHR-infected COS-1 cells, 0.1 μM PMA 60 minutes prior to TRH): 37±8.0%
- PMA-induced inhibition of the TRH response (TRH-R [1]; AdCMVmTRHR-infected GHY cells, 0.1 μM PMA added 60 minutes prior to TRH): 25±4.6%
- PMA-induced inhibition of the TRH response (TRH-R [1]; AdCMVmTRHR-infected KB cells, 0.1 μM PMA 60 minutes prior to TRH): 0±10%

Structure (SMILES): NC(=O)[C@@H]1CCCN1C(=O)[C@H](Cc1cnc[nH]1)NC(=O)[C@@H]1CCC(=O)N1 [TRH, thyrotropin-releasing hormone]
- TRH-induced desensitization: decrease of rate of IP formation compared to control (TRH-R [1]; AdCMVmTRHR-infected AtT-20 cells, 60 minutes 1 μM TRH): 41±4.7%
- TRH-induced desensitization (TRH-R [1]; AdCMVmTRHR-infected COS-1 cells, 60 minutes 1 μM TRH): did not desensitize
- TRH-induced desensitization: decrease of the response to TRH (TRH-R [1]; AdCMVmTRHR-infected GHY cells, after 60 minutes of stimulation by 1 μM TRH): 49±5.2%
- TRH-induced desensitization (TRH-R [1]; AdCMVmTRHR-infected KB cells, 60 minutes 1 μM TRH): 0±10%

Structure (SMILES): Cn1cnc(C[C@H](NC(=O)[C@@H]2CCC(=O)N2)C(=O)N2CCC[C@H]2C(N)=O)c1 [methylTRH]
- Kd (mouse TRH-R): 1.09 ± 0.26 nM
- TRH-Rs internalized after 60 minutes (TRH-R [2]; AdCMVmTRHR-infected COS-1 cells (printed COA-1)): 62±2.1%
- TRH-Rs internalized after 60 minutes (TRH-R [2]; AdCMVmTRHR-infected GHY cells): 64±7.0%
- TRH-Rs internalized after 60 minutes (TRH-R [2]; AdCMVmTRHR-infected KB cells): 71±2.6%
- response to methylTRH (IP formation) in uninfected cells (TRH-R [3]): did not respond
